In PMC8041284, “Tunable Methacrylamides for Covalent Ligand Directed Release Chemistry” (Journal of the American Chemical Society, 2021):
Where a SMILES comes first, the peptide text is derived from it. [ ]: non-standard residue; d: D form. pGlu = O=C1CC[C@@H](C(=O)O)N1; Thz = O=C(O)[C@@H]1CSCN1

Target: BTK (Homo sapiens, UniProt Q06187)
Assay: biochemical
Details: read-out: BTK inhibition (%)

BTK, sequence (Q06187 402-655 limits assumed): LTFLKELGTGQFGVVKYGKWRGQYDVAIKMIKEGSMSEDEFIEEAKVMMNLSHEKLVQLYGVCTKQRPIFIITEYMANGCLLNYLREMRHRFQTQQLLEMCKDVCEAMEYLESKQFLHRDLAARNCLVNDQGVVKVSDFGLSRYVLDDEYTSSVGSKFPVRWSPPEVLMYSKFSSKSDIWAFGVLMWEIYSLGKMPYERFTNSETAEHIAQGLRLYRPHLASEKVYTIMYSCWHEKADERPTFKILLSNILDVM

| Compound | inhibition at 10 µM [%] |
| --- | --- |
| COc1cc(Br)c(Nc2nc(-c3c(C)nc4ncccn34)cs2)c(Br)c1 [PCM-0095777] | 34 |
| C[C@]12C=CC(=O)C=C1CC[C@@H]1[C@@H]2CC[C@@]2(C)[C@H]1CC[C@]2(C)O [PCM-0215063] | -11.7 |

Same assay, conditions: read-out: BTK inhibition (%), 0.75 uM BTK, […] probe 3l, 15 min preincubation

| Compound | inhibition at 10 µM [%] |
| --- | --- |
| O=c1cc(-c2ccc(O[C@@H]3O[C@H](CO)[C@@H](O)[C@H](O)[C@H]3O)cc2)oc2c([C@@H]3O[C@H](CO)[C@@H](O)[C@H](O)[C@H]3O)c(O)cc(O)c12 [PCM-0216358] | -3.9 |
| OC[C@@H](O)[C@@H](O[C@H]1O[C@H](CO)[C@@H](O)[C@H](O)[C@H]1O)[C@H](O)[C@@H](O)CO [PCM-0215074] | -16.3 |
| CSCC1CN(/N=C/c2ccc([N+](=O)[O-])o2)C(=O)O1 (centres unmarked) [PCM-0216228] | 20.7 |
| Cc1ccc(S(=O)(=O)Nc2cc(-c3ccc(C#N)s3)ccc2C)cc1 [PCM-0214896] | -6.2 |
| Cc1ccc(O)c(O)c1 [PCM-0216565] | 6.2 |
| Cc1cc(Nc2ncc(Cl)c(Nc3ccccc3S(=O)(=O)C(C)C)n2)c(OC(C)C)cc1C1CCNCC1 [PCM-0095745] | 69.7 |
| C[C@H](CCC(=O)O)[C@H]1CC[C@H]2[C@@H]3[C@@H](O)C[C@@H]4C[C@H](O)CC[C@]4(C)[C@H]3CC[C@]12C [PCM-0214641] | 24.1 |
| CCS(=O)(=O)c1cccc(-c2cc(C(=O)NC3CCN(C)CC3)c(C)c3[nH]c4ncc(C)cc4c23)c1 [PCM-0095437] | 93.1 |
| C[C@H]1c2cccc(O)c2C(O)=C2C(=O)[C@]3(O)C(O)=C(C(N)=O)C(=O)[C@@H](N(C)C)[C@@H]3[C@@H](O)[C@@H]21 [PCM-0215985] | -21.6 |
| CCc1ccc(/C=C2/SC(=S)NC2=O)cc1 [PCM-0064568] | 46.2 |
| O=C1Nc2ccc(CN3C(=O)CSC3=O)cc2/C1=C/c1cc(CN2CCOCC2)c[nH]1 [PCM-0215763] | -11 |
| COC[C@H](NC(=O)c1cnc(C)s1)C(=O)N[C@@H](COC)C(=O)N[C@@H](Cc1ccccc1)C(=O)[C@@]1(C)CO1 [PCM-0095574] | -4.6 |
| Cc1cc([N+](=O)[O-])ccc1NS(=O)(=O)c1cc(Cl)ccc1Cl [PCM-0215330] | 11.6 |
| CCOC(=O)/C=C/c1ccc(O)c(O)c1 [PCM-0216571] | 17.8 |
| CCn1cc(C(=O)O)c(=O)c2ccc(C)nc21 [PCM-0012961] | 5.4 |
| Cc1cccc(-c2[nH]ncc2-c2ccc3ncccc3n2)n1 [PCM-0065277] | 13.9 |
| Oc1cc(CNC(=S)/C=C/c2cc(O)c(O)c(Br)c2)cc(O)c1O [PCM-0215728] | 43.4 |
| CCCCCCC1CCC(=O)O1 (centres unmarked) [PCM-0216147] | 0 |
| CC1=CC(=O)CC(C)(C)[C@@]1(O)/C=C/C(C)=C\C(=O)O [PCM-0215371] | 9.3 |
| COc1ccc(CCNCc2ccc(OCc3ccc(Cl)nc3)c(OC)c2)cc1OC [PCM-0215426] | -27.6 |
| CC(C)(O[C@@H]1O[C@H](CO)[C@@H](O)[C@H](O)[C@H]1O)[C@H]1Cc2cc3ccc(=O)oc3cc2O1 [PCM-0216505] | -1.5 |
| COc1cc(N)c(Cl)cc1C(=O)N[C@H]1CCN(CCCOc2ccc(F)cc2)C[C@H]1OC [PCM-0086006] | 13.2 |
| O=C1C(=Cc2ccncc2)CCCC1=Cc1ccncc1 [PCM-0216087] | -4.1 |
| CC(C)[C@H](O)C(=O)N[C@@H](C)C(=O)N[C@@H]1C(=O)N(C)CCc2ccccc21 [PCM-0214637] | -3.1 |

| Compound | inhibition at 10 µM [%] |
| --- | --- |
| COc1ccc(Oc2cc(C)c(-c3csc(NC(=O)c4ccncc4)n3)c(C)c2)cc1 [PCM-0215413] | 20.8 |
| c1coc(CNc2ncnc3nc[nH]c23)c1 [PCM-0000462] | 10.9 |
| CCCCCCCCCC[C@H](C(=O)O)[C@]1(C(=O)O)CCC(=O)O1 [PCM-0215979] | 17.8 |
| CC(=O)O[C@H]1CC/C(C)=C/CC/C(C)=C/C[C@]2(C(C)C)CC[C@@]1(C)O2 [PCM-0216348] | -10 |
| c1cn2cc(-c3ccc4cn[nH]c4c3)nc(Nc3ccc(N4CCOCC4)cc3)c2n1 [PCM-0095758] | 33.8 |
| Cc1ccsc1C(=CCCN1CCC[C@@H](C(=O)O)C1)c1sccc1C [PCM-0214833] | -7 |
| CN1c2cc(O)c(N=NC(N)=O)cc2CC1S(=O)(=O)O (centres unmarked) [PCM-0095446] | -10.9 |
| Nc1nc(N)nc(N)n1 [PCM-0216468] | 13.9 |
| NCc1c[nH]c(=S)n1[C@H]1CCc2c(F)cc(F)cc2C1 [PCM-0214705] | -17.1 |
| c1ccc([C@H]2CN3CCSC3=N2)cc1 [PCM-0065508] | 17.9 |
| O=S(=O)(NCCNC/C=C/c1ccc(Br)cc1)c1cccc2cnccc12 [PCM-0095146] | -22.8 |
| c1cnc2cc3c(cc2n1)[C@@H]1CNC[C@H]3C1 [PCM-0064570] | -31.5 |
| CS(=O)(=O)c1cccc(C[C@H](NC(=O)c2c(Cl)cc3c(c2Cl)CCN(C(=O)c2ccc4ccoc4c2)C3)C(=O)O)c1 [PCM-0214914] | -4.7 |
| COc1cc2c(cc1O)C[C@H]1c3cc(O)c(OC)cc3CC[N+]1(C)C2 (some centres unmarked) [PCM-0216444] | 2.3 |
| CC[C@H]1OC(=O)[C@@](C)(F)C(=O)[C@H](C)[C@@H](O[C@@H]2O[C@H](C)C[C@H](N(C)C)[C@H]2O)[C@](C)(OC)C[C@@H](C)C(=O)[C@H](C)[C@H]2N(CCCCn3cc(-c4cccc(N)c4)nn3)C(=O)O[C@]12C [PCM-0216086] | -22.1 |
| Cc1nc(Nc2n[nH]c3c2CN(C(=O)N[C@H](CN(C)C)c2ccccc2)C3(C)C)c2sccc2n1 [PCM-0095819] | 72.4 |
| N#Cc1cc2cc(CN3CCC(Nc4ncnc5sc(CC(F)(F)F)cc45)CC3)ccc2[nH]1 [PCM-0215651] | 78 |
| O=C(O)[C@@]1(CCCCCCOc2ccc(Cl)cc2)CO1 [PCM-0215742] | -1.5 |
| COc1ncc(-c2ccc3nccc(-c4ccnnc4)c3c2)cc1NS(=O)(=O)c1ccc(F)cc1F [PCM-0095528] | -18.6 |
| CO/N=C(\C(=O)N[C@@H]1C(=O)N2C(C(=O)OCOC(=O)C(C)(C)C)=C(/C=C\c3scnc3C)CS[C@H]12)c1csc(N)n1 [PCM-0214651] | 28 |
| COc1cccc(-c2ccc(NC(=O)C3=C(C(=O)O)CCC3)c(F)c2)c1 [PCM-0215523] | -75.9 |
| C=C1C[C@@]23CC[C@H]4[C@@](C)(CCC[C@@]4(C)C(=O)O[C@@H]4O[C@H](CO)[C@@H](O)[C@H](O)[C@H]4O)[C@@H]2CC[C@]1(O[C@@H]1O[C@H](CO)[C@@H](O)[C@H](O)[C@H]1O)C3 [PCM-0216413] | 4.6 |
| Cc1cn([C@H]2O[C@@H](CO)[C@H](O)[C@H]2F)c(=O)[nH]c1=O [PCM-0214737] | 23.3 |
| C[C@@H]1O[C@@H](O[C@H]2[C@H](O[C@H]3CC[C@@]4(C)[C@@H](CC[C@]5(C)[C@@H]4CC=C4[C@@H]6CC(C)(C)CC[C@]6(C(=O)O)CC[C@]45C)[C@]3(C)CO)OC[C@H](O[C@@H]3O[C@H](CO)[C@@H](O)[C@H](O)[C@H]3O)[C@@H]2O)[C@H](O)[C@H](O)[C@H]1O [PCM-0216539] | 52.5 |

| Compound | inhibition at 10 µM [%] |
| --- | --- |
| O=C(O)c1cc(=O)cc(C(=O)O)o1 [PCM-0216206] | -6.2 |
| Cc1ccc(-n2nc(C(C)(C)C)cc2NC(=O)Nc2ccc(OCCN3CCOCC3)c3ccccc23)cc1 [PCM-0095136] | 9.7 |
| Cc1nc(C(=O)NCC(=O)O)c(O)c2ccc(Oc3ccccc3)cc12 [PCM-0094891] | -5.4 |
| O=C(O)COc1ccc(Br)cc1/C=C1\SC(=S)N(Cc2cccnc2)C1=O [PCM-0216029] | 7.7 |
| COc1ccc(CCC(=O)c2c(O)cc(O[C@@H]3O[C@H](CO)[C@@H](O)[C@H](O)[C@H]3O[C@@H]3O[C@@H](C)[C@H](O)[C@@H](O)[C@H]3O)cc2O)cc1O [PCM-0094869] | 9.3 |
| O=C1CC[C@@H](C(=O)N2CSC[C@H]2C(=O)O)N1 [PCM-0090672] ([pGlu]-[Thz]-OH) | 11.7 |
| Cc1c(Cl)cccc1Nc1ccccc1C(=O)O [PCM-0005612] | -6.2 |
| COC1=C2C[C@@H](C)C[C@H](OC)[C@H](O)[C@@H](C)/C=C(\C)[C@H](OC(N)=O)[C@@H](OC)/C=C\C=C(/C)C(=O)NC(=CC1=O)C2=O [PCM-0095416] | 0 |
| Cc1oc2nc3c(c(NC(=O)CN4CCCC4=O)c2c1C)CCCC3 [PCM-0216053] | 12.4 |
| COc1ccc2c(c1OC)CC1c3c(cc4c(c3-2)OCO4)CCN1C (centres unmarked) [PCM-0216450] | 0.8 |
| CC(C)OC(=O)CCC/C=C\C[C@@H]1[C@@H](CC[C@@H](O)CCc2ccccc2)[C@H](O)C[C@@H]1O [PCM-0215712] | -13.1 |
| O=C(CSc1nc2c(c(=O)n1-c1ccccc1)SCC2)Nc1ccc(-c2ccccc2)cn1 [PCM-0215278] | -8.5 |
| Fc1ccc(Cl)cc1-c1nc(Nc2ccncc2)c2nccnc2n1 [PCM-0215428] | -17 |
| CC(=O)c1ccc(C)cc1O [PCM-0215921] | -6.9 |
| CCC[C@@H]1C[C@@H](C(=O)N[C@@H]([C@H]2O[C@H](SC)[C@H](OP(=O)(O)O)[C@@H](O)[C@H]2O)[C@H](C)Cl)N(C)C1 [PCM-0095212] | -5.1 |
| Nc1nnc(-c2cccc(Cl)c2Cl)c(N)n1 [PCM-0065504] | 16.3 |
| O=C1C(=O)N(Cc2ccc(Cl)c(Cl)c2)c2ccccc21 [PCM-0095429] | 9.3 |
| NC(=O)c1cccc(-c2cc(Nc3ccc(OC(F)(F)F)cc3)ncn2)c1 [PCM-0095363] | -37.9 |
| COC(=O)[C@H](CC(C)C)NC(=O)c1ccc(NC[C@@H](N)CS)cc1-c1cccc2ccccc12 [PCM-0215717] | -79.5 |
| CN1CC[C@@H](NC(=O)Nc2ccc(C#N)cc2)C[C@@H]1c1nc2ccccc2[nH]1 [PCM-0215365] | -3.9 |
| Cc1cc(C)c(S(=O)(=O)n2cc(C)cc2C)c(C)c1 [PCM-0215336] | -13.1 |
| Cc1[nH]nc2ncc(C(=O)N3CCC[C@H]3c3ccc(Cl)cc3)cc12 [PCM-0215837] | 6.2 |
| O=C(Nc1ccncc1)c1cc([N+](=O)[O-])ccc1Cl [PCM-0064887] | 10.9 |
| O=C(CNc1ccc2ccccc2c1)N/N=C/c1cc(Br)c(O)c(Br)c1O [PCM-0215592] | 47.9 |
